Results: PubChem BioAssay (NCI)
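Each compound was tested at five concentrations against cells in 96-well plates for 48 hours. TGI marks complete inhibition of growth.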

Legend:
Assay in all cases: NCI tumour cell line growth inhibition, 48 h
786-0 renal = test system: 786-0 renal
A498 renal = test system: A498 renal
A549 NSCLC = test system: A549 NSCLC
ACHN renal = test system: ACHN renal
BT-549 breast = test system: BT-549 breast
CAKI-1 renal = test system: CAKI-1 renal
CCRF-CEM leukemia = test system: CCRF-CEM leukemia
EKVX NSCLC = test system: EKVX NSCLC
HCT-15 colon = test system: HCT-15 colon
HL-60(TB) leukemia = test system: HL-60(TB) leukemia
HOP-62 NSCLC = test system: HOP-62 NSCLC
HS 578T breast = test system: HS 578T breast
HT29 colon = test system: HT29 colon
IGROV1 ovarian = test system: IGROV1 ovarian
K-562 leukemia = test system: K-562 leukemia
KM12 colon = test system: KM12 colon
LOX IMVI melanoma = test system: LOX IMVI melanoma
M14 melanoma = test system: M14 melanoma
MALME-3M melanoma = test system: MALME-3M melanoma
MCF7 breast = test system: MCF7 breast
MDA-MB-231 breast = test system: MDA-MB-231 breast
MDA-MB-435 = test system: MDA-MB-435
MDA-N = test system: MDA-N
MOLT-4 leukemia = test system: MOLT-4 leukemia
NCI-H226 lung = test system: NCI-H226 lung
NCI-H23 lung = test system: NCI-H23 lung
NCI-H460 lung = test system: NCI-H460 lung
NCI-H522 lung = test system: NCI-H522 lung
NCI/ADR-RES ovarian = test system: NCI/ADR-RES ovarian
OVCAR-3 ovarian = test system: OVCAR-3 ovarian
OVCAR-4 ovarian = test system: OVCAR-4 ovarian
OVCAR-5 ovarian = test system: OVCAR-5 ovarian
OVCAR-8 ovarian = test system: OVCAR-8 ovarian
PC-3 prostate = test system: PC-3 prostate
RPMI-8226 leukemia = test system: RPMI-8226 leukemia
RXF 393 renal = test system: RXF 393 renal
SF-268 CNS = test system: SF-268 CNS
SF-295 CNS = test system: SF-295 CNS
SF-539 CNS = test system: SF-539 CNS
SK-MEL-2 melanoma = test system: SK-MEL-2 melanoma
SK-MEL-28 melanoma = test system: SK-MEL-28 melanoma
SK-MEL-5 melanoma = test system: SK-MEL-5 melanoma
SK-OV-3 ovarian = test system: SK-OV-3 ovarian
SN12C renal = test system: SN12C renal
SNB-19 CNS = test system: SNB-19 CNS
SNB-75 CNS = test system: SNB-75 CNS
SW-620 colon = test system: SW-620 colon
T-47D breast = test system: T-47D breast
TK-10 renal = test system: TK-10 renal
U251 CNS = test system: U251 CNS
UACC-62 melanoma = test system: UACC-62 melanoma
UO-31 renal = test system: UO-31 renal
COLO 205 colon = test system: COLO 205 colon
DU-145 prostate = test system: DU-145 prostate
HCC-2998 colon = test system: HCC-2998 colon
HCT-116 colon = test system: HCT-116 colon
HOP-92 NSCLC = test system: HOP-92 NSCLC
SR leukemia = test system: SR leukemia
UACC-257 melanoma = test system: UACC-257 melanoma

How did the TGI (786-0 renal) turn out when `O=C(COc1ccc(Cl)cc1Cl)N/N=C/C=C/c1ccc([N+](=O)[O-])o1` was run?
The TGI was 65.9 µM.

What about the TGI (A498 renal) of the same compound?
Its TGI is greater than 100 µM.

And the TGI (A549 NSCLC)?
Its TGI is greater than 100 µM.

What about the TGI (ACHN renal) of the same compound?
Its TGI is greater than 100 µM.

What about the TGI (BT-549 breast) of the same compound?
Its TGI is 58 µM.

And the TGI (CAKI-1 renal)?
The TGI was greater than 100 µM.

What about the TGI (CCRF-CEM leukemia) of the same compound?
The TGI was 15.2 µM.

And the TGI (EKVX NSCLC)?
The TGI was greater than 100 µM.

What about the TGI (HCT-15 colon) of the same compound?
Its TGI is greater than 100 µM.

And the TGI (HL-60(TB) leukemia)?
The TGI was greater than 100 µM.

And the TGI (HOP-62 NSCLC)?
Its TGI is 54.4 µM.

What about the TGI (HS 578T breast) of the same compound?
The TGI was 7.4 µM.

What about the TGI (HT29 colon) of the same compound?
Its TGI is greater than 100 µM.

And the TGI (IGROV1 ovarian)?
Its TGI is 6.79 µM.

And the TGI (K-562 leukemia)?
The TGI was greater than 100 µM.

What about the TGI (KM12 colon) of the same compound?
The TGI was greater than 100 µM.

And the TGI (LOX IMVI melanoma)?
Its TGI is 38.9 µM.

What about the TGI (M14 melanoma) of the same compound?
The TGI was greater than 100 µM.

What about the TGI (MALME-3M melanoma) of the same compound?
Its TGI is 6.65 µM.

What about the TGI (MCF7 breast) of the same compound?
Its TGI is greater than 100 µM.

And the TGI (MDA-MB-231 breast)?
The TGI was 95.6 µM.

And the TGI (MDA-MB-435)?
Its TGI is greater than 100 µM.

And the TGI (MDA-N)?
The TGI was greater than 100 µM.

And the TGI (MOLT-4 leukemia)?
Its TGI is 6.14 µM.

And the TGI (NCI-H226 lung)?
Its TGI is greater than 100 µM.

And the TGI (NCI-H23 lung)?
Its TGI is 39 µM.

And the TGI (NCI-H460 lung)?
The TGI was greater than 100 µM.

What about the TGI (NCI-H522 lung) of the same compound?
The TGI was 2.83 µM.

And the TGI (NCI/ADR-RES ovarian)?
The TGI was greater than 100 µM.

And the TGI (OVCAR-3 ovarian)?
Its TGI is greater than 100 µM.

And the TGI (OVCAR-4 ovarian)?
Its TGI is 61.8 µM.

What about the TGI (OVCAR-5 ovarian) of the same compound?
The TGI was greater than 100 µM.

What about the TGI (OVCAR-8 ovarian) of the same compound?
Its TGI is 76.6 µM.

And the TGI (PC-3 prostate)?
The TGI was greater than 100 µM.

And the TGI (RPMI-8226 leukemia)?
The TGI was 9.22 µM.

And the TGI (RXF 393 renal)?
Its TGI is 59.8 µM.

What about the TGI (SF-268 CNS) of the same compound?
Its TGI is greater than 100 µM.

And the TGI (SF-295 CNS)?
The TGI was greater than 100 µM.

And the TGI (SF-539 CNS)?
Its TGI is greater than 100 µM.

What about the TGI (SK-MEL-2 melanoma) of the same compound?
The TGI was greater than 100 µM.

What about the TGI (SK-MEL-28 melanoma) of the same compound?
Its TGI is greater than 100 µM.

And the TGI (SK-MEL-5 melanoma)?
The TGI was 5.26 µM.

And the TGI (SK-OV-3 ovarian)?
Its TGI is 59.6 µM.

What about the TGI (SN12C renal) of the same compound?
The TGI was greater than 100 µM.

What about the TGI (SNB-19 CNS) of the same compound?
Its TGI is 41.4 µM.

And the TGI (SNB-75 CNS)?
The TGI was 59.2 µM.

And the TGI (SW-620 colon)?
Its TGI is greater than 100 µM.

And the TGI (T-47D breast)?
Its TGI is greater than 100 µM.

What about the TGI (TK-10 renal) of the same compound?
Its TGI is 91.5 µM.

And the TGI (U251 CNS)?
Its TGI is greater than 100 µM.

And the TGI (UACC-62 melanoma)?
The TGI was greater than 100 µM.

And the TGI (UO-31 renal)?
Its TGI is greater than 100 µM.

Which TGI (786-0 renal) does the source give for `c1cc(NC2=NCCO2)c2c(c1)OCO2` here?
Its TGI is greater than 100 µM.

What about the TGI (A498 renal) of the same compound?
Its TGI is greater than 100 µM.

What about the TGI (A549 NSCLC) of the same compound?
The TGI was greater than 100 µM.

What about the TGI (ACHN renal) of the same compound?
Its TGI is greater than 100 µM.

What about the TGI (CAKI-1 renal) of the same compound?
The TGI was greater than 100 µM.

And the TGI (CCRF-CEM leukemia)?
The TGI was greater than 100 µM.

What about the TGI (COLO 205 colon) of the same compound?
The TGI was greater than 100 µM.

What about the TGI (DU-145 prostate) of the same compound?
Its TGI is greater than 100 µM.

And the TGI (EKVX NSCLC)?
Its TGI is greater than 100 µM.

What about the TGI (HCC-2998 colon) of the same compound?
The TGI was greater than 100 µM.

What about the TGI (HCT-116 colon) of the same compound?
Its TGI is greater than 100 µM.

What about the TGI (HCT-15 colon) of the same compound?
Its TGI is greater than 100 µM.

And the TGI (HL-60(TB) leukemia)?
Its TGI is greater than 100 µM.

What about the TGI (HOP-62 NSCLC) of the same compound?
The TGI was greater than 100 µM.

What about the TGI (HOP-92 NSCLC) of the same compound?
The TGI was greater than 100 µM.

And the TGI (HS 578T breast)?
The TGI was greater than 100 µM.

And the TGI (HT29 colon)?
The TGI was greater than 100 µM.

And the TGI (IGROV1 ovarian)?
Its TGI is greater than 100 µM.

What about the TGI (K-562 leukemia) of the same compound?
The TGI was greater than 100 µM.

What about the TGI (KM12 colon) of the same compound?
Its TGI is greater than 100 µM.

What about the TGI (LOX IMVI melanoma) of the same compound?
The TGI was greater than 100 µM.

What about the TGI (M14 melanoma) of the same compound?
The TGI was greater than 100 µM.

And the TGI (MALME-3M melanoma)?
The TGI was greater than 100 µM.

And the TGI (MCF7 breast)?
The TGI was greater than 100 µM.

And the TGI (MDA-MB-231 breast)?
The TGI was greater than 100 µM.

And the TGI (MDA-MB-435)?
Its TGI is greater than 100 µM.

And the TGI (MDA-N)?
The TGI was greater than 100 µM.

And the TGI (MOLT-4 leukemia)?
The TGI was greater than 100 µM.

What about the TGI (NCI-H226 lung) of the same compound?
The TGI was greater than 100 µM.

And the TGI (NCI-H23 lung)?
Its TGI is greater than 100 µM.

What about the TGI (NCI-H460 lung) of the same compound?
Its TGI is greater than 100 µM.

What about the TGI (NCI-H522 lung) of the same compound?
Its TGI is greater than 100 µM.

And the TGI (NCI/ADR-RES ovarian)?
The TGI was greater than 100 µM.

And the TGI (OVCAR-3 ovarian)?
The TGI was greater than 100 µM.

And the TGI (OVCAR-4 ovarian)?
The TGI was greater than 100 µM.

And the TGI (OVCAR-5 ovarian)?
Its TGI is greater than 100 µM.

What about the TGI (OVCAR-8 ovarian) of the same compound?
The TGI was greater than 100 µM.

And the TGI (PC-3 prostate)?
Its TGI is greater than 100 µM.

And the TGI (RPMI-8226 leukemia)?
The TGI was greater than 100 µM.

And the TGI (RXF 393 renal)?
Its TGI is greater than 100 µM.

What about the TGI (SF-268 CNS) of the same compound?
The TGI was greater than 100 µM.

What about the TGI (SF-295 CNS) of the same compound?
The TGI was greater than 100 µM.

And the TGI (SF-539 CNS)?
Its TGI is greater than 100 µM.

And the TGI (SK-MEL-2 melanoma)?
Its TGI is greater than 100 µM.

And the TGI (SK-MEL-28 melanoma)?
The TGI was greater than 100 µM.

And the TGI (SK-MEL-5 melanoma)?
The TGI was greater than 100 µM.

What about the TGI (SK-OV-3 ovarian) of the same compound?
Its TGI is greater than 100 µM.

And the TGI (SN12C renal)?
The TGI was greater than 100 µM.

What about the TGI (SNB-19 CNS) of the same compound?
The TGI was greater than 100 µM.

What about the TGI (SR leukemia) of the same compound?
The TGI was greater than 100 µM.

And the TGI (SW-620 colon)?
Its TGI is greater than 100 µM.

And the TGI (T-47D breast)?
Its TGI is greater than 100 µM.

What about the TGI (U251 CNS) of the same compound?
Its TGI is greater than 100 µM.

What about the TGI (UACC-257 melanoma) of the same compound?
The TGI was greater than 100 µM.

And the TGI (UACC-62 melanoma)?
The TGI was greater than 100 µM.

And the TGI (UO-31 renal)?
The TGI was greater than 100 µM.
